Measured values published in patent US6949542B2, “Dihydro-benzo[b][1,4]diazepin-2-one derivatives” (Hoffman-La Roche Inc., priority 2002, dated 2005).
Where two headings read alike, the source gives them in different places.

Assays:
rat mGlu2 receptor = target: T1, rat mGlu2 receptor (Rattus norvegicus, UniProt P31421); test: [3H]-LY354740 binding on mGlu2 transfected CHO cell membranes
T1 construct: expressed in transfected cells; vector pcD1mGR2

[1] = inhibition of 10 nM [3H]-LY354740 binding, mGlu2 transfected CHO cell membranes, room temperature, 1 hour, read-out: Ki mGlu2

T1 sequence (P31421 19-872): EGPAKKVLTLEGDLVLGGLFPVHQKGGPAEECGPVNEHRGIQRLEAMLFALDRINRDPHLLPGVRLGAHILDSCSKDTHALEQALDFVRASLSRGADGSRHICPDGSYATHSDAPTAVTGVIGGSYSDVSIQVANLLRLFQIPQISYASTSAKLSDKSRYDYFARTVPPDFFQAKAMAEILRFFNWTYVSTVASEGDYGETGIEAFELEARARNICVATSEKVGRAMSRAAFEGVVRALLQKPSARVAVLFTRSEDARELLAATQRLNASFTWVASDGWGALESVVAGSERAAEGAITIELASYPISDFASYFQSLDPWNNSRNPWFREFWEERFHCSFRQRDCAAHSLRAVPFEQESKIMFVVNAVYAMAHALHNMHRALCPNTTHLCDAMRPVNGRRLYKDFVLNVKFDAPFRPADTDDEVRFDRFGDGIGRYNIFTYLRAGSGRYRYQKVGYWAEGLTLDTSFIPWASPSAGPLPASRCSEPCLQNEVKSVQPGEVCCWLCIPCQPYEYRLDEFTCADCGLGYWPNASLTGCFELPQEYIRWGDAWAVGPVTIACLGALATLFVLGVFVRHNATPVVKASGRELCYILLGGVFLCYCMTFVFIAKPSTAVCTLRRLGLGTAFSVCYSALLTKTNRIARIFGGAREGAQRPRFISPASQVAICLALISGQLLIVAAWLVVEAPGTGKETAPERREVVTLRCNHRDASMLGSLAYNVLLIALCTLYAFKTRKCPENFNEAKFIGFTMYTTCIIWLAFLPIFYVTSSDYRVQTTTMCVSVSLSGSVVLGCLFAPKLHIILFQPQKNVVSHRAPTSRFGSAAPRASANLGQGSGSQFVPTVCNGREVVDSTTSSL

Row | Structure (SMILES) | Ki (rat mGlu2 receptor; [1]) [nM] | melting point | Ki (rat mGlu2 receptor) [nM]
1 | O=C1CC(c2cccc(-c3cccnc3)c2)=Nc2cc(Cl)c(Cl)cc2N1 [Example 1, 7,8-Dichloro-4-(3-pyridin-3-yl-phenyl)-1,3-dihydro-benzo[b][1,4]diazepin-2-one] | 1.35 |  | 
2 | CN(C)c1cc2c(cc1C(F)(F)F)NC(=O)CC(c1cccc(-c3ccncc3)c1)=N2 [Example 4, 7-Dimethylamino-4-(3-pyridin-4-yl-phenyl)-8-trifluoromethyl-1,3-dihydro-benzo[b][1,4]diazepin-2-one] | 6 |  | 
3 | Cc1ccc(-c2cccc(C3=Nc4ccc(C(F)(F)F)cc4NC(=O)C3)c2)cn1 [Example 9, 4-[3-(6-Methyl-pyridin-3-yl)-phenyl]-8-trifluoromethyl-1,3-dihydro-benzo[b][1,4]diazepin-2-one] | 5.5 | 215 to 218 °C | 
4 | Cc1ccc(-c2cccc(C3=Nc4ccc(-c5ccccc5F)cc4NC(=O)C3)c2)cn1 [Example 12, 8-(2-Fluoro-phenyl)-4-[3-(6-methyl-pyridin-3-yl)-phenyl]-1,3-dihydro-benzo[b][1,4]diazepin-2-one] | 3.9 | 206 to 209 °C | 
5 | Cc1cc2c(cc1C(F)(F)F)N=C(c1cccc(-c3cccnc3)c1)CC(=O)N2 [Example 25, 8-Methyl-4-(3-pyridin-3-yl-phenyl)-7-trifluoromethyl-1,3-dihydro-benzo[b][1,4]diazepin-2-one] | 2.8 | 221 °C | 
6 | O=C1CC(c2cccc(-c3cccnc3)c2)=Nc2ccc(Cl)cc2N1 [Example 28, 8-Chloro-4-(3-pyridin-3-yl-phenyl)-1,3-dihydro-benzo[b][1,4]diazepin-2-one] | 2 | 232 °C | 
7 | O=C1CC(c2cccc(-c3ccncc3)c2)=Nc2cc(OCC(F)(F)F)c(C(F)(F)F)cc2N1 [Example 37, 4-(3-Pyridin-4-yl-phenyl)-7-(2,2,2-trifluoro-ethoxy)-8-trifluoromethyl-1,3-dihydro-benzo[b][1,4]diazepin-2-one] | 1.55 | 221 to 222 °C (dec.) | 
8 | COc1ccc(-c2cccc(C3=Nc4ccc(-c5ccccc5F)cc4NC(=O)C3)c2)nn1 [Example 41, 8-(2-Fluoro-phenyl)-4-[3-(6-methoxy-pyridazin-3-yl)-phenyl]-1,3-dihydro-benzo[b][1,4]diazepin-2-one] | 24.5 | 220 °C | 
9 | Cc1cc2c(cc1Cl)NC(=O)CC(c1cccc(-c3ccnnc3)c1)=N2 [Example 48, 8-Chloro-7-methyl-4-(3-pyridazin-4-yl-phenyl)-1,3-dihydro-benzo[b][1,4]diazepin-2-one] | 9.35 | 240 °C (dec.) | 
10 | O=C1CC(c2cccc(-c3ccccn3)c2)=Nc2ccc(-n3cccc3)cc2N1 [Example 54, 4-(3-Pyridin-2-yl-phenyl)-8-pyrrol-1-yl-1,3-dihydro-benzo[b][1,4]diazepin-2-one] | 32.6 |  | 
11 | Cc1cc2c(cc1Cl)NC(=O)CC(c1cccc(-c3ccncc3)c1)=N2 [Example 67, 8-Chloro-7-methyl-4-(3-pyridin-4-yl-phenyl)-1,3-dihydro-benzo[b][1,4]diazepin-2-one] | 1.55 |  | 
12 | Cc1cc(-c2cccc(C3=Nc4ccc(-c5ccccc5F)cc4NC(=O)C3)c2)ccn1 [Example 72, 8-(2-Fluoro-phenyl)-4-[3-(2-methyl-pyridin-4-yl)-phenyl]-1,3-dihydro-benzo[b][1,4]diazepin-2-one] | 1.8 |  | 
13 | CCCN(C)c1cc2c(cc1C(F)(F)F)NC(=O)CC(c1cccc(-c3ccnc(C)c3)c1)=N2 [Example 80, 7-(Methyl-propyl-amino)-4-[3-(2-methyl-pyridin-4-yl)-phenyl]-8-trifluoromethyl-1,3-dihydro benzo[b][1,4]diazepin-2-one] | 5.5 | 192 °C | 
14 | O=C1CC(c2cccc(-c3cncnc3)c2)=Nc2cc(Cl)c(Cl)cc2N1 [Example 97, 7,8-Dichloro-4-(3-pyrimidin-5-yl-phenyl)-1,3-dihydro-benzo[b][1,4]diazepin-2-one] |  | 272 °C | 10.7
15 | O=C1CC(c2cccc(-c3cncnc3)c2)=Nc2ccc(-c3ccccc3F)cc2N1 [Example 105, 8-(2-Fluoro-phenyl)-4-(3-pyrimidin-5-yl-phenyl)-1,3-dihydro-benzo[b][1,4]diazepin-2-one] | 6.2 | 223 °C | 
16 | Cc1cc(-c2cccc(C3=Nc4cc(OCC(F)(F)F)c(C(F)(F)F)cc4NC(=O)C3)c2)c(C)cn1 [Example 138, 4-[3-(2,5-Dimethyl-pyridin-4-yl)-phenyl]-7-(2,2,2-trifluoro-ethoxy)-8-trifluoromethyl-1,3-dihydro-benzo[b][1,4]diazepin-2-one] | 3.6 | 202 °C | 
17 | CCc1cnc(C)cc1-c1cccc(C2=Nc3cc(C)c(Cl)cc3NC(=O)C2)c1 [Example 147, 8-Chloro-4-[3-(5-ethyl-2-methyl-pyridin-4-yl)-phenyl]-7-methyl-1,3-dihydro-benzo[b][1,4]diazepin-2-one] | 4.5 | 195 °C | 
18 | Cc1cccc(-c2cccc(C3=Nc4cc(N(C)C)c(C(F)(F)F)cc4NC(=O)C3)c2)n1 [Example 160, 7-Dimethylamino-4-[3-(6-methyl-pyridin-2-yl)-phenyl]-8-trifluoromethyl-1,3-dihydro-benzo[b][1,4]diazepin-2-one] | 18.8 | 195 °C | 
19 | Cc1cc2c(cc1C(F)(F)F)NC(=O)CC(c1ccnc(-c3cccnc3)c1)=N2 [Example 290, 4-[2,3′]Bipyridinyl-4-yl-7-methyl-8-trifluoromethyl-1,3-dihydro-benzo[b][1,4]diazepin-2-one] | 5 |  | 

Continued by falling Ki (rat mGlu2 receptor; [1]), values first:

Row | Ki (rat mGlu2 receptor; [1]) [nM] | melting point | Structure (SMILES) | Ki (rat mGlu2 receptor) [nM]
20 | 27 | 240 °C | COc1cc2c(cc1C(F)(F)F)NC(=O)CC(c1cccc(-c3ccccn3)c1)=N2 [Example 42, 7-Methoxy-4-(3-pyridin-2-yl-phenyl)-8-trifluoromethyl-1,3-dihydro-benzo[b][1,4]diazepin-2-one] | 
21 | 23.5 | 239 °C | O=C1CC(c2cccc(-c3ccccn3)c2)=Nc2cc(Cl)c(Cl)cc2N1 [Example 5, 7,8-Dichloro-4-(3-pyridin-2-yl-phenyl)-1,3-dihydro-benzo[b][1,4]diazepin-2-one] | 
22 | 22.5 | 187 to 189 °C | Cc1ccc(-c2cccc(C3=Nc4cc(N(C)C)c(C(F)(F)F)cc4NC(=O)C3)c2)c(C)n1 [Example 47, 7-Dimethylamino-4-[3-(2,6-dimethyl-pyridin-3-yl)-phenyl]-8-trifluoromethyl-1,3-dihydro-benzo[b][1,4]diazepin-2-one] | 
23 | 19 | 198 °C | CC(C)CNc1cc2c(cc1C(F)(F)F)NC(=O)CC(c1cccc(-c3ccncc3)c1)=N2 [Example 63, 7-Isobutylamino-4-(3-pyridin-4-yl-phenyl)-8-trifluoromethyl-1,3-dihydro-benzo[b][1,4]diazepin-2-one] | 
24 | 16.5 | 225 °C | Cc1ccc(-c2cccc(C3=Nc4ccc(-c5ccccc5F)cc4NC(=O)C3)c2)nn1 [Example 16, 8-(2-Fluoro-phenyl)-4-[3-(6-methyl-pyridazin-3-yl)-phenyl]-1,3-dihydro-benzo[b][1,4]diazepin-2-one] | 
25 | 10 | 237 °C | Cc1cc2c(cc1C(F)(F)F)NC(=O)CC(c1cccc(-c3cnccn3)c1)=N2 [Example 87, 7-Methyl-4-(3-pyrazin-2-yl-phenyl)-8-trifluoromethyl-1,3-dihydro-benzo[b][1,4]diazepin-2-one] | 
26 | 8 | 248 °C | Cc1cc2c(cc1Cl)NC(=O)CC(c1cccc(-c3cncnc3)c1)=N2 [Example 104, 8-Chloro-7-methyl-4-(3-pyrimidin-5-yl-phenyl)-1,3-dihydro-benzo[b][1,4]diazepin-2-one] | 
27 | 6.2 |  | O=C1CC(c2cccc(-c3cccnc3)c2)=Nc2cc(OCC(F)(F)F)ccc2N1 [Example 57, 4-(3-Pyridin-3-yl-phenyl)-7-(2,2,2-trifluoro-ethoxy)-1,3-dihydro-benzo[b][1,4]diazepin-2-one] | 
28 | 6 | 229 to 230 °C | Cc1ncccc1-c1cccc(C2=Nc3cc(N(C)C)c(C(F)(F)F)cc3NC(=O)C2)c1 [Example 13, 7-Dimethylamino-4-[3-(2-methyl-pyridin-3-yl)-phenyl]-8-trifluoromethyl-1,3-dihydro-benzo[b][1,4]diazepin-2-one] | 
29 | 5.5 | 214 °C | O=C1CC(c2cccc(-c3cnccn3)c2)=Nc2ccc(-n3cccc3)cc2N1 [Example 109, 4-(3-Pyrazin-2-yl-phenyl)-8-pyrrol-1-yl-1,3-dihydro-benzo[b][1,4]diazepin-2-one] | 
30 | 3.4 | 240 °C | O=C1CC(c2cccc(-c3ccncc3)c2)=Nc2cc(Cl)c(Cl)cc2N1 [Example 2, 7,8-Dichloro-4-(3-pyridin-4-yl-phenyl)-1,3-dihydro-benzo[b][1,4]diazepin-2-one] | 
31 | 3.1 | 233 °C | Cc1cncc(-c2cccc(C3=Nc4cc(C)c(C(F)(F)F)cc4NC(=O)C3)c2)n1 [Example 129, 7-Methyl-4-[3-(6-methyl-pyrazin-2-yl)-phenyl]-8-trifluoromethyl-1,3-dihydro-benzo[b][1,4]diazepin-2-one] | 
32 | 2.7 |  | Cc1cc(-c2cccc(C3=Nc4cc(C)c(Cl)cc4NC(=O)C3)c2)ccn1 [Example 73, 8-Chloro-7-methyl-4-[3-(2-methyl-pyridin-4-yl)-phenyl]-1,3-dihydro-benzo[b][1,4]diazepin-2-one] | 
33 | 2.3 |  | CN(C)c1cc2c(cc1C(F)(F)F)NC(=O)CC(c1cccc(-c3cccnc3)c1)=N2 [Example 3, 7-Dimethylamino-4-(3-pyridin-3-yl-phenyl)-8-trifluoromethyl-1,3-dihydro-benzo[b][1,4]diazepin-2-one] | 
34 | 1.29 | 225 °C | Cc1cc(-c2cccc(C3=Nc4cc(N(C)C)c(C(F)(F)F)cc4NC(=O)C3)c2)ccn1 [Example 78, 7-Dimethylamino-4-[3-(2-methyl-pyridin-4-yl)-phenyl]-8-trifluoromethyl-1,3-dihydro benzo[b][1,4]diazepin-2-one] | 
